Source: publication PMC5366949, “The toxicity of angiotensin converting enzyme inhibitors to larvae of the disease vectors Aedes aegypti and Anopheles gambiae” (Scientific Reports, 2017)
Where two headings read alike, the source gives them in different places.

What was measured:
[1] = tested on: T1, An. gambiae larval ACE (soluble peptidyl dipeptidase activity; one or both of AnoACE2 and AnoACE3); assay: fluorogenic peptidase assay, larval high-speed supernatant; type: biochemical; settings: substrate Abz-Phe-Arg-Lys(Dnp)-Pro-OH about 25 uM, pH 7.5, 50 mM NaCl, 10 uM ZnCl2, 20 C, 10 min pre-incubation, read-out: Anopheles gambiae / IC50
T1 construct: native; 55,000 g supernatant of whole 3rd instar larval homogenate, not purified; AnoACE2 and/or AnoACE3 inferred by the authors from soluble activity and larval expression
Source text: fluorogenic peptidase assay, larval high-speed supernatant on An. gambiae larval ACE (soluble peptidyl dipeptidase activity; one or both of AnoACE2 and AnoACE3)

[2] = tested on: T2, Ae. aegypti larval ACE (soluble peptidyl dipeptidase activity); assay: as above; type: biochemical; settings: substrate Abz-Phe-Arg-Lys(Dnp)-Pro-OH about 25 uM, pH 7.5, 50 mM NaCl, 10 uM ZnCl2, 20 C, 10 min pre-incubation, read-out: Aedes aegypti / IC50
T2 construct: native; 55,000 g supernatant of whole 3rd instar larval homogenate, not purified; gene(s) not identified for this species
Source text: fluorogenic peptidase assay, larval high-speed supernatant on Ae. aegypti larval ACE (soluble peptidyl dipeptidase activity)

## CCC(=O)O[C@@H](O[P@](=O)(CCCCc1ccccc1)CC(=O)N1C[C@H](C2CCCCC2)C[C@H]1C(=O)O)C(C)C [fosinopril]
[1]; pro-drug ester of fosinoprilat
  IC50: 0.326 µM
[2]; pro-drug ester of fosinoprilat
  IC50: 0.373 µM

## O=C(O)[C@@H]1C[C@@H](C2CCCCC2)CN1C(=O)CP(=O)(O)CCCCc1ccccc1 [fosinoprilat]
[1]
  IC50: 0.0352 µM
[2]
  IC50: 0.00661 µM

## C[C@H](CS)C(=O)N1CCC[C@H]1C(=O)O [captopril]
[1]
  IC50: 0.0167 µM
[2]
  IC50: 0.00247 µM
